Measurements as given in ChEMBL document CHEMBL3714764, “Diaminopyrimidine p2x3 and p2x2/3 receptor modulators for treatment of acute, sub-acute or chronic cough” (2015).
Active and inactive are the calls of the source. The rule behind the calls is not given here.

Legend:
[1] = molecular target: T1, P2X purinoceptor 3 (Rattus norvegicus) (UniProt P49654); assay: (§1) Antagonist activity against rat P2X3 receptor expressed in CHO-K1 cells assessed as effect on calcium level incubated for 20 mins by Fluo-3AM dye based FLIPR assay; type: functional, cell-based
T1 sequence (whole entry): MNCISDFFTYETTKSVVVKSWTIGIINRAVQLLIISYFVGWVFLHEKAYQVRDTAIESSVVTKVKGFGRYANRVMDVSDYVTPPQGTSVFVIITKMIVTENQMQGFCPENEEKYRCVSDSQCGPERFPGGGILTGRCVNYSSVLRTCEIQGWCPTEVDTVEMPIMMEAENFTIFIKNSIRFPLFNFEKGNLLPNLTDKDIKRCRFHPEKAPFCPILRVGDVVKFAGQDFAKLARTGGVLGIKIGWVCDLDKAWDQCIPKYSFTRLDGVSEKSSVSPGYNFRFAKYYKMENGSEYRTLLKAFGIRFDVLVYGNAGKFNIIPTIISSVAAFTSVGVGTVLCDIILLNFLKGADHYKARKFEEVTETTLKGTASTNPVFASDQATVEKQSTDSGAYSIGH

Homo sapiens [2] = species on record: Homo sapiens; assay: Anti-tussive activity in idiopathic/treatment-resistant chronic cough patient assessed as reduction in daytime cough per hour at 600 mg BID measured after 2 weeks during double-blind randomized placebo-controlled crossover trial; type: functional
Homo sapiens [3] = species on record: Homo sapiens; assay: Anti-tussive activity in idiopathic/treatment-resistant chronic cough patient assessed as cough severity visual analogue scales at 600 mg BID measured after 2 weeks during double-blind randomized placebo-controlled crossover trial; type: functional
Homo sapiens [4] = species on record: Homo sapiens; assay: Anti-tussive activity in idiopathic/treatment-resistant chronic cough patient assessed as urge to cough analogue scales at 600 mg BID measured after 2 weeks during double-blind randomized placebo-controlled crossover trial; type: functional
Homo sapiens [5] = species on record: Homo sapiens; assay: Anti-tussive activity in idiopathic/treatment-resistant chronic cough patient assessed as global ratings of change and cough quality of life questionnaire at 600 mg BID measured after 2 weeks during double-blind randomized placebo-controlled crossover trial; type: functional
Homo sapiens [6] = species on record: Homo sapiens; assay: Anti-tussive activity in patient with refractory chronic cough assessed as reduction in objective daytime cough counts at 600 mg BID measured after 2 weeks during double-blind randomized placebo-controlled crossover trial; type: functional
P2X purinoceptor 3 = molecular target: T2, P2X purinoceptor 3 (Rattus norvegicus, UniProt P49654); assay: as §1; type: functional, cell-based
T2 sequence (P49654 whole entry): T1 sequence (whole entry)

inhibition [1]	Structure (SMILES)	other results
Active	COc1cc(C(C)C)c(Oc2cnc(N)nc2N)cc1C(N)=O	
Active	COc1cc(C(C)C)c(Oc2cnc(N)nc2N)cc1S(C)(=O)=O	
Active	COc1cc(C(C)C)c(Oc2cnc(N)nc2N)cc1Br	
Active	CC(=O)c1cc(Oc2cnc(N)nc2N)c(C(C)C)cc1O	
Active	COc1cc(C(C)C)c(Oc2cnc(N)nc2N)cc1C(=O)O	
Active	COc1cc(C(C)C)c(Oc2cnc(N)nc2N)cc1C(C)(C)O	
Active	COc1cc(C(C)C)c(Oc2cnc(N)nc2N)cc1NC(C)=O	
Active	COc1cc(C(C)C)c(Oc2cnc(N)nc2N)cc1C(C)OC (configuration not stated)	
Active	COc1cc(C(C)C)c(Oc2cnc(N)nc2N)cc1N	
Active	COc1cc(C(C)C)c(Oc2cnc(N)nc2N)cc1C(C)O (configuration not stated)	
Active	COc1cc(C(C)C)c(Oc2cnc(N)nc2N)cc1C(C)=O	
Active	COc1cc(C(C)C)c(Oc2cnc(N)nc2N)cc1C(=O)N(C)C	
Active	COc1cc(C(C)C)c(Oc2cnc(N)nc2N)cc1C	
Active	CNC(=O)c1cc(Oc2cnc(N)nc2N)c(C(C)C)cc1OC	
Active	COc1cc(Oc2cnc(N)nc2N)c(C(C)C)cc1OC	
Active	COc1cc(C(C)C)c(Oc2cnc(N)nc2N)cc1I	
Active	CCNS(=O)(=O)c1cc(Oc2cnc(N)nc2N)c(C(C)C)cc1OC	
Active	CCNC(=O)Nc1cc(Oc2cnc(N)nc2N)c(C(C)C)cc1OC	

inhibition [1]	Structure (SMILES)	other results
Active	COc1cc(C(C)C)c(Oc2cnc(N)nc2N)cc1S(N)(=O)=O [GEFAPIXANT]	inhibition (INH) (Homo sapiens [2]): 75%; Activity (Homo sapiens [3]): -26 mm; Activity (Homo sapiens [4]): -21 mm; Activity_index (Homo sapiens [5]): -9; inhibition (INH) (Homo sapiens [6]): 75%
Active	COc1cc(C(C)C)c(Oc2cnc(N)nc2N)cc1C(F)(F)F	
Active	COc1cc(C(C)C)c(Oc2cnc(N)nc2N)cc1OC(F)(F)F	
Active	COc1cc(C(C)C)c(Oc2cnc(N)nc2N)cc1C(C)C	
Active	COc1cc(C(C)C)c(Oc2cnc(N)nc2N)cc1[N+](=O)[O-]	
Active	C=Cc1cc(Oc2cnc(N)nc2N)c(C(C)C)cc1OC	
Active	CNS(=O)(=O)c1cc(Oc2cnc(N)nc2N)c(C(C)C)cc1OC	
Active	CC(C)c1cc(O)c(I)cc1Cc1cnc(N)nc1N	
Active	CC(C)c1cc(OC(F)F)c(Cl)cc1Oc1cnc(N)nc1N	
Active	COc1cc(C(C)C)c(Oc2cnc(N)nc2N)cc1C#N	
Active	CC(C)c1cc(OCC(F)(F)F)c(I)cc1Oc1cnc(N)nc1N	
Active	CCS(=O)(=O)c1cc(Oc2cnc(N)nc2N)c(C(C)C)cc1OC	
Active	COc1cc(C(C)C)c(Oc2cnc(N)nc2N)cc1NC(N)=O	
Active	COc1cc(C(C)C)c(Oc2cnc(N)nc2N)cc1NC(=O)Nc1ccccc1	
Active	COc1cc(C(C)C)c(Oc2cnc(N)nc2N)cc1F	
Active	CCOc1cc(C(C)C)c(Oc2cnc(N)nc2N)cc1I	
Active	C#CCOc1cc(C(C)C)c(Oc2cnc(N)nc2N)cc1I	
	CC(C)c1cc(O)c(I)cc1Oc1cnc(N)nc1N	IC50 (P2X purinoceptor 3): 5.01 nM

Structure (SMILES)	inhibition [1]	other results
COc1cc(C(C)C)c(Oc2cnc(N)nc2N)cc1Cl	Active	
